Measurements as given in article PMC6693643 (ACS chemical biology, 2017).

Assays:
MtuATP-PRT [1] = target: T1, MtuATP-PRT (Mycobacterium tuberculosis, UniProt P9WMN1)
MtuATP-PRT [2] = target: T1, MtuATP-PRT; test: competitive kinetic isotope effects, scintillation counting; type: biochemical; settings: reverse reaction; co-substrate PRATP; alternative to pyrophosphate

T1 sequence (P9WMN1 whole entry): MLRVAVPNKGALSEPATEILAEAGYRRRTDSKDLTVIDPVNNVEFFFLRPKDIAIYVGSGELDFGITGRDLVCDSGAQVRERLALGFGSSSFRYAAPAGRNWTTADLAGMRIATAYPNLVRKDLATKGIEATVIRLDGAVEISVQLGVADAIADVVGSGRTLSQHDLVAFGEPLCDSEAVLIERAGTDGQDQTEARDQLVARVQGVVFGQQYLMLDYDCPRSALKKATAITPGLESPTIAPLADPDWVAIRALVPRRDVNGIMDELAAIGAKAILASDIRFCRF

| SMILES | X-ray crystal structure (co-crystallisation) (MtuATP-PRT [1]) | competitive kinetic isotope effects, scintillation counting (MtuATP-PRT [2]) |
| --- | --- | --- |
| Nc1ncnc2c1ncn2[C@@H]1O[C@H](COP(=O)(O)OP(=O)(O)OP(=O)(O)O)[C@@H](O)[C@H]1O [ATP] | a structure with ATP bound to MtuATP-PRT (PDB: 5U99) was obtained |  |
| O=C(O)CP(=O)(O)O [phosphonoacetic acid] |  | the ATP-PRT catalyzed reaction was studied using phosphonoacetic acid (PA) as an alternative |
